Experimental data taken from patent US4939178A, “Use of avarol for the control of adult T-cell leukemia/lymphoma” (Merz + Co. GmbH & Co., priority 1986, dated 1990).
Read-outs that look alike come from different tables or passages of the source.

Legend:
[1] = tested on: peripheral human lymphocytes (buffy coat cells); assay: Interferon-gamma production by lymphocytes (EIA); format: cell-based
Protocol: Effector cells: Buffy coat cells were prepared by centrifugation on Ficoll-Plaque gradient and washed two times. Subsequently the cells were divided and adjusted to a concentration of 5×1,000,000 cells/ml.
Interferon measurement: Levels of Interferon were defined by an Enzymeimmunoassay (EIA). Interferon gamma: 96 well flat bottom plates (Greiner, Nuertingen) were coated with a monoclonal antibody recognizing Interferon gamma. 200 μl of the supernatant sample were added per well together with Interferon gamma-peroxidase coupled (50 μl), consisting of the same antibody as used for coating. […] The enzymatic reaction is completed by a preparation containing hydrogen peroxide substrate. The reaction is stopped within 15 minutes by 100 μl of sulfuric acid per well. The amount of Interferon is defined by comparing the extinction of the test sample with a standard curve produced by known values of Interferon gamma.

male NMRI mice [2] = assay: Delayed-type hypersensitivity to sheep red blood cells; format: in vivo
Protocol: Reaction to sheep red blood cells (SRBC): DTH was produced according to the method of Lagrange et al. (J. Exp. Med. 139: 528-542; 1974) and Liew (Eur. J. Immunol. 7, 714-718; 1977). Male NMRI mice (20-23 g, 10 animals/group) were immunized with 10^8 SRBC/40 μl into one foot pad (day 0). Four days later 10^9 SRBC/40 μl were injected into the other foot pad. After 24 hours, paw size was measured with a dial gauge caliper Odi-Test OOT (H. C. Kroeplin, Schluchtern, Germany). Avarol (in 0.15% [w/v] methylcellulose) was administered daily i.p. either from day -2 to +1 or from day +2 to +4. The level of DTH was expressed as foot pad increase, determined after 24 hrs; and it is given in mm. Non-treated groups were injected i.p. with methylcellulose only. Treated groups were compared with the controls using the U-test of Wilcoxon et al. (Sachs, L. Angewandte Statistik, Springer-Verlag, Berlin; 1984).

[3] = tested on: T-cell derived leukemia cells; settings: cited from earlier work
ATL-3-I cells = assay: Cell growth of ATL-3-I cells; format: cell-based; settings: two days, control 13.2
Text: (§1) For this, the MT-2, ATL-3I, and ATL-1K cell lines were employed. These cell lines are described by Hashino, H., et al., Proc. Nat. Academy Science U.S.A. 80, 6061-6065 (1983) and by Miyoshi, J., et al., Nature 294, 770-771 (1981). All these cell lines contain the HTLV-provirus, and among these cell lines primarily the lines MT-2 and ATL-3I express also the retrovirus antigens and also produce the HTLV-I virus.
(§2) Cell culture conditions were employed according to those described by H. Hoshino, et al., Proc. Nat. Acad. Sci. (U.S.A.) 80, 1983, 7337-7341.
(§3) ATL-3-I, MT-2, and ATL-1K cells were seeded into Petri dishes in a concentration of 3×10^3 cells/cm^2 in a culture medium containing 20% of calf serum. After incubation for two days, the density of the cells amounted to: […]: 13.2×10^3 cells/cm^2; MT-2: 12.4×10^3 cells/cm^2; ATL-1K: 15.7×10^3 cells/cm^2. These values formed the control values.
(§4) Thereupon samples of these cells were treated for two days with different concentrations of avarol.

ATL-1K cells = assay: Cell growth of ATL-1K cells; format: cell-based; settings: two days, control 15.7
Text: as §1, §2, §3, §4

[4] = Organ distribution of tritium labelled avarol; format: in vivo, rats
Protocol: The organ distribution was determined by the same method using tritium labelled Avarol. The determinations were performed 24 hours after termination of the i.v. application. These concentrations were determined on the basis of radioactivity. Moreover, the chemical nature of the radioactive product was identified by high-pressure liquid chromatography and found to consist of over 90% of Avarol. In addition, the biological activity of the compound in the blood was determined after extraction with ethyl acetate and estimated in the […] cell system in vitro (Muller, W. E. G. et al.; Comp. Biochem. Physiol. 80C, 47-52; 1985). Using this system, the biological activity of the compound, present in the blood, was determined and converted on a gram basis. Using this approach the concentration in the blood was only 5-15% lower than that determined on the basis of radioactivity.

[5] = tested on: retroviral (HTLV-I) antigen in ATL-3-I cells; assay: microbe, parasite or virus in culture; format: cell-based; settings: Primate T-lymphotropic virus 1, read-out: Expression of retroviral antigen (in %)
[6] = tested on: macrophage-containing and macrophage-depleted lymphocyte cultures; assay: [3H]-dThd incorporation in lymphocyte cultures of pretreated mice; settings: pretreatment of mice with avarol, lymphocyte cultures in vitro
male NMRI mice [7] = assay: Contact allergy to oxazolone; format: in vivo; settings: 3-30 mg/kg i.p., day -1 to +2 or day +6 to +8; P>0.05
[8] = tested on: male NMRI mice immunized with SRBC; assay: Jerne plaque test, in vivo immunoglobulin production; settings: avarol 30 mg/kg i.p., from 0 to +4
Protocol: The plaque test of Jerne and Nordin (Science 140: 405-406, 1963) was used with the modification given by Cunningham and Szenberg (Immunolog. 14: 599-601; 1968). Briefly, 8 male NMRI mice per group (20-22 g) were immunized on day 0 by i.p. injection of 5×10^8 SRBC in 0.5 ml saline. Treatment with avarol was done i.p. either from day 0 to day +4 or from day -4 to day 0. One hour after the last drug administration, the animals were killed by a blow on the head and bled. The spleens were removed and a single cell suspension was prepared by teasing the pooled spleens through a 120μm mesh sieve. After lysing the erythrocytes by 0.15M NH4 Cl, the cells were washed twice in Hank's balanced salt solution containing 29 ml of 7.5% NaHCO3 and 10 ml of 1M HEPES buffer solution per one liter. The cells were resuspended in 2 ml per spleen. Six Cunningham chambers per group were filled with a mixture of 0.5 ml of a suitable dilution of spleen cells (generally 1:100), 0.5 ml of a suspension of SRBC (10^9 /ml) and 125 μl of normal guinea pig complement. After 90-120 min of incubation at 37° C., the number of plaques was counted. Plaques per spleen or per 10^6 spleen cells were calculated.
The pooled blood of 8 mice was centrifuged to obtain the serum. IgM and IgG titers were measured with the mercaptoethanol method (Hudson, L. and Hay, F. C. Practical Immunology, Blackwell Sci., Oxford; 1983).

[9] = format: in vivo, rats
MT-2 cells = assay: Cell growth of MT-2 cells; format: cell-based; settings: two days, control 12.4
Text: as §1, §2, §3, §4

male Sprague-Dawley rats = assay: Antibody mediated hypersensitivity, modified active Arthus reaction; format: in vivo
Protocol: A modified active Arthus reaction was performed as described (Titus et al., J. Immunol. Methods 45: 65-78; 1981). Male Sprague-Dawley rats (8/group) weighing 120 g were immunized by injecting into the tail base 0.5 ml of a suspension of 4.4 ml pertussis vaccine (Behringwerke, Marburg) in 65.6 ml of 0.9% saline plus 0.7 g ovalbumin (3×cryst.) in 100 ml paraffin oil. Three weeks after immunization 0.1 ml of 0.03% ovalbumin solution were injected into a hind paw and the paw volume was measured with a water plethysmometer (Rhema) immediately thereafter and again after 4 hours. The animals were treated i.p. with daily doses from 3-30 mg/kg of avarol (in 0.15% [w/v] methylcellulose) according to the following schedules: (i) day -1 to +2, (ii) day +18 to +21 or (iii) twice 24 hours and 30 minutes before challenge (day 0 represents the day of immunization). The controls received methylcellulose only. Values are compared with a control group using Student's-t-test (L. Sachs. Angewandte Statistik, Springer-Verlag, Berlin; 1984).

CC1=CCC[C@H]2[C@](C)(Cc3cc(O)ccc3O)[C@@H](C)CC[C@]12C [Avarol, 2-[(1R)-1,2,3,4,4a,7,8,8aα-octahydro-1β,2β,4aβ,5-tetramethyl-1-naphthylmethyl]-1,4-benzenediol]
Titer of Interferon-gamma produced by lymphocytes ([1]; avarol 1.0 μg/ml, 48 hours): 52 Units/ml of supernatant
optimal dose for Interferon gamma induction in vitro ([1]; buffy coat cells): 0.5 µg/mL
influence on DTH to SRBC (male NMRI mice [2]; i.p. day +2 to +4 after immunization, doses higher than 10 mg/kg): weak but significant immunosuppressive effect
influence on DTH to SRBC (male NMRI mice [2]; i.p. day -2 to +1, up to daily doses of 30 mg/kg): no significant immunosuppressive influence
lymphoma cell growth inhibited by 50% [3]: 0.3 to 0.4 µg/mL
Cell concentration ATL-3-I (ATL-3-I cells; drug 1.0 μg/ml): 9.4 × 10^3 /cm^2
Cell concentration ATL-3-I (ATL-3-I cells; drug 5.0 μg/ml): 8.7 × 10^3 /cm^2
Cell concentration ATL-1K (ATL-1K cells; drug 1.0 μg/ml): 13.4 × 10^3 /cm^2
Cell concentration ATL-1K (ATL-1K cells; drug 5.0 μg/ml): 10.3 × 10^3 /cm^2
Concentration of Avarol, Skin ([4]; 10 mg/kg i.v., 24 hours): 0.6 microgram of Avarol per gram o
Concentration of Avarol, Brain ([4]; 20 mg/kg i.v., 24 hours): 0.64 microgram of Avarol per gram o
blood-brain barrier penetration ([4]; rats): penetrates the blood-brain barrier
activity at 1 µg/mL [5]: 82%
activity at 5 µg/mL [5]: 74%
[3H]-dThd incorporation rate [6]: higher
influence on DTH oxazolone (male NMRI mice [7]): did not influence significantly
Cell/spleen [8]: 1.2e+08 cells/spleen
Percentage of Radioactivity in Blood ([9]; 10 mg/kg i.v., 1 hour): 96%
Percentage of Radioactivity in Blood ([9]; 10 mg/kg i.v., 6 hours): 88%
Percentage of Radioactivity in Blood ([9]; 10 mg/kg i.v., 12 hours): 72%
Percentage of Radioactivity in Blood ([9]; 10 mg/kg i.v., 24 hours): 43%
Percentage of Radioactivity in Blood ([9]; 10 mg/kg i.v., 48 hours): 26%
Percentage of Radioactivity in Blood ([9]; 20 mg/kg i.v., 1 hour): 92%
Percentage of Radioactivity in Blood ([9]; 20 mg/kg i.v., 12 hours): 75%
Percentage of Radioactivity in Blood ([9]; 20 mg/kg i.v., 24 hours): 39%
Percentage of Radioactivity in Blood ([9]; 20 mg/kg i.v., 48 hours): 21%
Percentage of Radioactivity in Blood ([9]; rat, in vivo): 83
Cell concentration MT-2 (MT-2 cells; drug 1.0 μg/ml): 8.1 × 10^3 /cm^2
Cell concentration MT-2 (MT-2 cells; drug 5.0 μg/ml): 7.9 × 10^3 /cm^2
suppression of the Arthus reaction (male Sprague-Dawley rats; 30 mg/kg, 24 hours and 30 minutes before challenge, P>0.05): not significant
suppression of the Arthus reaction (male Sprague-Dawley rats; 3-30 mg/kg i.p., day -1 to +2, day +18 to +21 or immediately before challenge): no significant suppression
